Laboratory results from patent publication US7439251B2, “Methods and compositions for treatment of central and peripheral nervous system disorders and novel compounds useful therefor” (Israel Institute for Biological Research, priority 2002, dated 2008).

Legend:
GSK-3β = GSK-3β activity in rat hippocampal neurons; type: cell-based; conditions: 10 μM with Aβ fibrils 10 μM (fibrils alone 370%)
Method: This study was performed in rat hippocampal primary cell cultures using the methods described by Garrido J L et al. (FASEB J 2002; 16:1982).

[1] = Morris water maze in AF64A-injected rats; type: in vivo, rat
Method: AF64A or saline-injected (6 months old) Sprague-Dawley rats were tested in the Morris Water Maze (MWM) task. The paradigm used assesses spatial learning abilities in a reference memory regimen, and involves training (days 1-4), transfer test (Probe trial—day 4, 3 min following the last training trial) and reversal test (day 5).
Drugs and PBS were administered once a day for 5 days before starting the behavioral testing, and then for the duration of the 5-day experiment, 30 min before testing.
The three measures, escape latency, path length and swimming speed were analyzed by MANOVA, followed by simple main effects contrast analysis.

[2] = Working memory (MWM) in ischemic rats; type: in vivo, rat; conditions: 0.5 mg/kg po chronic, vs DDW
Method: This was done by a bilateral carotid artery occlusion in Sprague Dawley rats: […] Ischemia was induced in 21 rats whereas the other 21 rats served as sham controls. Under pentobarbital anasthesia (30 mg/kg, ip), sodium nitropruside 4.8 mg/kg/hr) was infused through a cannula implanted in the tail vein, for a period of 25 min. […] Immediately afterwards 1.8 mEq sodium bicarbonate solution was administerd ip in order to minimize systemic acidosis. The sham operated rats were anesthetized as the ischemic rats and were infused with saline. Their carotid arteries were exposed but were not subject to carotid clamping. […] Animals were allowed to recover for 3 weeks prior to behavioral testing. […] The evaluation of the animals was done using the working-memory matching-to-sample paradigm in the MWM. […] REL and RPL reflect the relative saving in performance from trial no 1 to trial no 2. REL and RPL were analyzed by a 3-way ANOVA (2×2×3), with one repeated variable (weeks) and two non-repeated variables (Operation-ischemia/sham-operated and Treatment-AF150(S)/DDW).

Structure (SMILES) | GSK-3β activity vs. control (100%) (GSK-3β) | reversal test ([1]; AF64A rats, 1 mg/kg) | training, escape latency ([1]; AF64A rats, 1 mg/kg) | reversal test ([1]; AF64A rats, 3 mg/kg) | training performance ([1]; AF64A rats, 3 mg/kg) | learning (training) ([1]; AF64A rats, 0.3, 1, 3 mg/kg po) | probe trial, escape latency ([1]; AF64A rats, all doses) | working memory performance (REL and RPL) [2]
CC[C@@H]1SC2(CCN(C)CC2)NC1=O [AF267B, (S)-2-ethyl-8-methyl-1-thia-4,8-diaza-spiro[4.5]decan-3-one] | 150% | tendency for improvement | tendency for improvement | tendency for impairment | tended to impair performance | no significant effect on learning | complete spatial bias | –
CC1=NCC2(CCN(C)CC2)S1 [AF150(S), 2,8-Dimethyl-1-thia-3,8-diaza-spiro[4.5]dec-2-ene] | – | – | – | – | – | – | – | significantly improved working memory performance
